Test results from patent publication US20240145091A1, “METHOD FOR MODULATING THE AMOUNT OF VIRUS, METHOD FOR TREATING OR […] […], METHOD FOR […] AMOUNT OF VIRUS, AND METHOD FOR PREDICTING THE PROGNOSIS OF VIRUS INFECTION DISEASE IN SUBJECT, AS WELL AS COMPOSITION AND SYSTEM FOR THE SAME” (National Institutes of Biomedical Innovation, Health and …, priority 2022, published 2024).

What was measured:
[1] = tested on: H1N1 influenza A/Puerto Rico/8/34 (PR8 influenza virus strain); experiment: Influenza model mice study: body weight and survival after D-amino acid administration; format: in vivo, C57BL6 mice
From the text: (§1) FIG. 1 is a schematic diagram showing the experimental protocol for D-AA administration (+D-AA) to IAV and Mock in Example 1. C57BL6 mice (SLC, Tokyo, Japan) raised in a specific pathogen control facility were used. In order to increase the amount of virus in the mice in a short period of time, […] water containing 50 times the TCID50 (median tissue culture infectious dose, 50% infectious dose) of H1N1 influenza A/Puerto Rico/8/34 (PR8 influenza virus strain (ATCC, Manassas, USA) was administered intranasally to anesthetized 4-week-old individuals to infect them. After infection, individuals in each group were weighed and blood samples were collected on a predetermined schedule, and plasma chiral amino acids (D-amino acids and L-amino acids) were quantitatively analyzed by 2D-HPLC.

SARS-CoV-2 = experiment: COVID-19 model mice study: body weight and survival after D-Ala administration; format: in vivo, CAG-hACE2 mice
Method: FIG. 10 is a schematic diagram of the experimental protocol using coronavirus-infected mice in Example 2. CAG-hACE2 mice susceptible to SARS-CoV-2, which were developed at the National Institute of Biomedical Innovation, Health and Nutrition, were used. 2×10^2 to 10^4 of TCID50 of SARS-CoV-2 was administered to anesthetized 8—to 12-week-old individuals for bronchial infection to create a mouse model of coronavirus infection (Non-Patent Literature 9).
FIG. 12 is a schematic diagram of the experimental schedule of D-Ala administration to coronavirus-infected mice in Example 2. 8—to 12-week-old male and female CAG-hACE2 mice were subjected to intraperitoneal administration with a predetermined dose of D-Ala twice daily, which was stared from 2 days prior to the experiment. The mice were then infected with SARS-CoV-2 via the respiratory tract.

[2] = tested on: H1N1 influenza A/Puerto Rico/8/34 (PR8 influenza virus strain); experiment: Viral plaque quantification assay of lung tissue in influenza model mice; format: in vivo, C57BL6 mice; settings: FIG. 3A; day 5 after D-Ala administration; IAV+D-Ala vs IAV group, n=3 to 7
From the text: as §1
FIG. 3A is a graph showing the results of the viral plaque quantification assay of lung tissue on day 5 after D-Ala administration in the Mock, IAV, and IAV+D-Ala groups (n=3 to 7) in Example 1.

[3] = FIG. 8, IAV (Vehicle), IAV+D-Ser, IAV+D-Ala groups
[4] = FIG. 9, IAV (Vehicle), IAV+D-Ser, IAV+D-Ala groups

For `C[C@@H](N)C(=O)O` [D-Ala, D-alanine], the “rates of change in body weight” value ([1]; FIG. 2, IAV+D-Ala vs IAV group, n=3-10, *P<0.05) was “rates of weight loss were suppressed”, the “survival curves, Kaplan-Meier analysis with death as the endpoint” value ([1]; FIG. 4, Mock, Mock+D-Ala, IAV, IAV+D-Ala groups, n=3-10) was “suppressed the mortality rate” and the “survival curves, Kaplan-Meier analysis with death as the endpoint” value [1, 3] was “suppressed the mortality”. For the same compound, the “rates of change in body weight” value [1, 4] was “rates of weight loss were suppressed”, the “survival curves, Kaplan-Meier analysis with death as the endpoint” value (SARS-CoV-2; FIG. 14, SCV (Vehicle) vs SCV+D-Ala) was “suppressed the mortality” and the “rates of change in body weights over time” value (SARS-CoV-2; FIG. 17, SCV (Vehicle) vs SCV+D-Ala) was “smaller rate of decrease in body weights”. For the same compound, the “survival curves, Kaplan-Meier analysis with weight loss and death as composite endpoints” value (SARS-CoV-2; FIG. 18, SCV (Vehicle) vs SCV+D-Ala) was “suppressed the weight loss and the mortality”, the “survival curves by blood D-Ala level, Kaplan-Meier analysis with death as the endpoint” value (SARS-CoV-2; FIG. 19, SCV+D-Ala group split into high (>4.72 μM) and low (<4.72 μM) BD-Ala) was “better prognosis” and the “amount of virus, viral plaque quantification assay of lung tissue” value [2] was “increase in the amount of virus in the IAV+D-Ala group was suppressed”.

In the case of `N[C@H](CO)C(=O)O` [D-Ser, D-serine], the “survival curves, Kaplan-Meier analysis with death as the endpoint” value [1, 3] is reported as “suppressed the mortality” and the “rates of change in body weight” value [1, 4] is reported as “rates of weight loss were suppressed”.
